Source: PubChem BioAssay AID1963839 (Molecular Pharmacology Branch, DTP, NCI, 2024)

System: 817829-284-R-J1-PDC complex spheroid viability
Assay: Anticancer human tumor 817829-284-R-J1-PDC patient-derived colon adenocarcinoma cell line growth inhibition [POLQ]
Settings: for IC50: curve of first compound; for viability, T/C: stronger effect = lower value
Protocol: Multicellular complex tumor spheroid response to Polymerase (POL) inhibitors (novobiocin, ART-558, RP6685) in combination with a variety of drugs and investigational agents in selected tumor cell lines
The POL inhibitors (novobiocin, ART-558, and RP6685) were evaluated both individually and in combination with standard of care and investigational anticancer small molecules within a complex spheroid model of solid tumors. . Complex spheroids include a stromal component modeled by human endothelial cells (HUVEC) and fibroblasts modeled by human mesenchymal stem cells (MSCs). The concentration ranges selected for each drug and investigational agent were based upon clinically achievable concentrations if the clinical Cmax of the agent was known.
Compounds. The drugs and investigational agents: novobiocin (NSC847541), ART-558 (NSC835418), RP-6685 (NSC848927), peposertib (NSC802822), ceralasertib (NSC780249), elimusertib (NSC800525), camonsertib (NSC841442), AZD-1390 (NSC803789), olaparib (NSC753686), talazoparib (NSC767125), rucaparib (NSC756644), sotorasib (NSC818433), MRTX-1133 (NSC836407), SN-38 (NSC673596), topotecan (NSC609699), epotoside (NSC141540), doxorubicin (NSC123127), gemcitabine (NSC613327), 5-fluorouracil (NSC19893), paclitaxel (NSC125973), vemurafenib (NSC761431), MSA-2 (NSC828583), SN-011 (NSC837082), adavosertib (NSC754352), prexasertib (NSC758257), carboplatin (NSC241240) and oxaliplatin (NSC266046), were obtained from the National Cancer Institute (NCI) Developmental Therapeutics Program Chemical Repository (21). The FDA-approved anticancer drug set is available from the Developmental Therapeutics Program at https://dtp.cancer.gov/organization/dscb/obtaining/. […] The stock solutions were prepared in dimethyl sulfoxide (DMSO, Sigma-Aldrich, St. Louis, MO, cat. D2650), except for the platinum compounds which were prepared in saline (Quality Biological, Gaithersburg, MD, cat. 114-055-101), at 800-fold the tested concentration and stored at -70 degrees C prior to their use. All drugs and investigational agents were tested over a range starting from a high concentration at or near the clinical Cmax and decreasing in half-log increments. If the clinical Cmax for an agent had not been determined, the highest concentration tested was 10 microM, except for SN-38, which was tested at a high concentration of 1 microM.
Cell Culture. All cells were maintained in an incubator at 37 degrees C and 5% CO2 with 95% humidity. The PDC lines were cultured according to standard operating procedures established by the NCI PDMR (https://pdmr.cancer.gov). Table 3 of the manuscript, lists the cell lines along with the number of the three cell types plated to form the mct-spheroids and media for tumor cell growth. After thawing, all PDC lines, except 997537-175-T-J1-PDC and 415267-285-R-J2-PDC, were cultured in Matrigel-coated flasks prepared with a working solution of 1X Ham's F-12 nutrient mix, without supplementation (Thermo Fisher Scientific, cat. 11765054), 100 U/mL penicillin-streptomycin (Thermo Fisher Scientific, cat. 15140122), and 2.5% Matrigel (Corning Inc., Corning, NY, cat. 354248) for the first three passages. The two PDC lines 997537-175-T-J1-PDC and 415267-285-R-J2-PDC were cultured on uncoated flasks. The 857933-349-R-J2-PDC line was cultured in 6C/Colon 1B media containing advanced DMEM/F-12 (Thermo Fisher Scientific, cat. 12634028), 10 mM HEPES (Thermo Fisher Scientific, cat. 15630080), 1X GlutaMAX supplement (Thermo Fisher Scientific, cat. 35050061), 0.1 mg/mL primocin (InvivoGen, San Diego, CA, cat. ant-pm-2), 10% defined fetal bovine serum, heat inactivated (HyClone Laboratories Inc., Logan, UT, cat. SH30070.03HI), 50% L-WRN conditioned media (ATCC, cat. CRL-3276), 1.25 mM N-Acetyl-L-cysteine (Sigma-Aldrich, cat. A9165), 10 mM nicotinamide (Sigma-Aldrich, cat. N0636), 1X B-27 supplement (Thermo Fisher Scientific, cat. 17504044), 1X N-2 supplement (Thermo Fisher Scientific, cat. […]

[1] = second compound 0.0316 µM, first compound 0.0316 µM
[2] = second compound 0.0316 µM, first compound 0.1 µM
[3] = second compound 0.0316 µM, first compound 0.316 µM
[4] = second compound 0.0316 µM, first compound 1 µM
[5] = second compound 0.1 µM, first compound 0.0316 µM
[6] = second compound 0.1 µM, first compound 0.1 µM
[7] = second compound 0.1 µM, first compound 0.316 µM
[8] = second compound 0.1 µM, first compound 1 µM
[9] = second compound 0.316 µM, first compound 0.0316 µM
[10] = second compound 0.316 µM, first compound 0.1 µM
[11] = second compound 0.316 µM, first compound 0.316 µM
[12] = second compound 0.316 µM, first compound 1 µM
[13] = second compound 1 µM, first compound 0.0316 µM
[14] = second compound 1 µM, first compound 0.1 µM
[15] = second compound 1 µM, first compound 0.316 µM
[16] = second compound 1 µM, first compound 1 µM
[17] = second compound 3.16 µM, first compound 0.0316 µM
[18] = second compound 3.16 µM, first compound 0.1 µM
[19] = second compound 3.16 µM, first compound 0.316 µM
[20] = second compound 3.16 µM, first compound 1 µM
[21] = second compound 10 µM, first compound 0.0316 µM
[22] = second compound 10 µM, first compound 0.1 µM
[23] = second compound 10 µM, first compound 0.316 µM
[24] = second compound 10 µM, first compound 1 µM
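Note: spheroids exposed to compounds for 7 days.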
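Throughout, for viability, T/C: 100% = DMSO vehicle-treated spheroids.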

## CCc1c2c(nc3ccc(O)cc13)-c1cc3c(c(=O)n1C2)COC(=O)[C@]3(O)CC + COC1C(OC(N)=O)C(O)C(Oc2ccc3c(O)c(NC(=O)c4ccc(O)c(CC=C(C)C)c4)c(=O)oc3c2C)OC1(C)C
Second compound 0.0316 µM
  IC50: < 3.16 nM
Second compound 0.1 µM
  IC50: < 3.16 nM
Second compound 0.316 µM
  IC50: < 3.16 nM
Second compound 1 µM
  IC50: < 3.16 nM
Second compound 3.16 µM
  IC50: < 3.16 nM
Second compound 10 µM
  IC50: < 3.16 nM
Second compound 0.0316 µM, first compound 0.00316 µM
  viability, T/C: 25.5%
Second compound 0.0316 µM, first compound 0.01 µM
  viability, T/C: 17.6%
[1]
  viability, T/C: 10.6%
[2]
  viability, T/C: 8.89%
[3]
  viability, T/C: 5.32%
[4]
  viability, T/C: 3.77%
Second compound 0.1 µM, first compound 0.00316 µM
  viability, T/C: 17.9%
Second compound 0.1 µM, first compound 0.01 µM
  viability, T/C: 16.7%
[5]
  viability, T/C: 11%
[6]
  viability, T/C: 7%
[7]
  viability, T/C: 5.78%
[8]
  viability, T/C: 3%
Second compound 0.316 µM, first compound 0.00316 µM
  viability, T/C: 21.2%
Second compound 0.316 µM, first compound 0.01 µM
  viability, T/C: 15%
[9]
  viability, T/C: 11.7%
[10]
  viability, T/C: 8.14%
[11]
  viability, T/C: 5.95%
[12]
  viability, T/C: 2.76%
Second compound 1 µM, first compound 0.00316 µM
  viability, T/C: 18.1%
Second compound 1 µM, first compound 0.01 µM
  viability, T/C: 16.1%
[13]
  viability, T/C: 11.3%
[14]
  viability, T/C: 7.95%
[15]
  viability, T/C: 8.47%
[16]
  viability, T/C: 3.04%
Second compound 3.16 µM, first compound 0.00316 µM
  viability, T/C: 14.1%
Second compound 3.16 µM, first compound 0.01 µM
  viability, T/C: 16.3%
[17]
  viability, T/C: 11%
[18]
  viability, T/C: 7.05%
[19]
  viability, T/C: 4.82%
[20]
  viability, T/C: 3.32%
Second compound 10 µM, first compound 0.00316 µM
  viability, T/C: 23.3%
Second compound 10 µM, first compound 0.01 µM
  viability, T/C: 14.8%
[21]
  viability, T/C: 12.8%
[22]
  viability, T/C: 6.77%
[23]
  viability, T/C: 5.07%
[24]
  viability, T/C: 2.89%

## Nc1ccn(C2OC(CO)C(O)C2(F)F)c(=O)n1 (centres undefined) + COC1C(OC(N)=O)C(O)C(Oc2ccc3c(O)c(NC(=O)c4ccc(O)c(CC=C(C)C)c4)c(=O)oc3c2C)OC1(C)C
Second compound 0.0316 µM
  IC50: < 31.6 nM
Second compound 0.1 µM
  IC50: < 31.6 nM
Second compound 0.316 µM
  IC50: < 31.6 nM
Second compound 1 µM
  IC50: < 31.6 nM
Second compound 3.16 µM
  IC50: < 31.6 nM
Second compound 10 µM
  IC50: < 31.6 nM
[1]
  viability, T/C: 5.87%
[2]
  viability, T/C: 4.61%
[3]
  viability, T/C: 5.48%
[4]
  viability, T/C: 4.5%
Second compound 0.0316 µM, first compound 3.16 µM
  viability, T/C: 3.65%
Second compound 0.0316 µM, first compound 10 µM
  viability, T/C: 3.38%
[5]
  viability, T/C: 5.96%
[6]
  viability, T/C: 4.96%
[7]
  viability, T/C: 5.53%
[8]
  viability, T/C: 4.76%
Second compound 0.1 µM, first compound 3.16 µM
  viability, T/C: 3.8%
Second compound 0.1 µM, first compound 10 µM
  viability, T/C: 3.28%
[9]
  viability, T/C: 5.1%
[10]
  viability, T/C: 4.62%
[11]
  viability, T/C: 5.85%
[12]
  viability, T/C: 5.46%
Second compound 0.316 µM, first compound 3.16 µM
  viability, T/C: 3.59%
Second compound 0.316 µM, first compound 10 µM
  viability, T/C: 2.73%
[13]
  viability, T/C: 4.99%
[14]
  viability, T/C: 4.37%
[15]
  viability, T/C: 5.56%
[16]
  viability, T/C: 4.58%
Second compound 1 µM, first compound 3.16 µM
  viability, T/C: 4.04%
Second compound 1 µM, first compound 10 µM
  viability, T/C: 3.14%
[17]
  viability, T/C: 4.75%
[18]
  viability, T/C: 4.78%
[19]
  viability, T/C: 5.45%
[20]
  viability, T/C: 4.57%
Second compound 3.16 µM, first compound 3.16 µM
  viability, T/C: 3.73%
Second compound 3.16 µM, first compound 10 µM
  viability, T/C: 3.65%
[21]
  viability, T/C: 6.16%
[22]
  viability, T/C: 4.98%
[23]
  viability, T/C: 5.43%
[24]
  viability, T/C: 5.17%
Second compound 10 µM, first compound 3.16 µM
  viability, T/C: 4.49%
Second compound 10 µM, first compound 10 µM
  viability, T/C: 3.17%
